Test [1] deals with HUVEC. Briefly: Migration assay of HUVEC towards VEGF. Type of test: cell-based, human. The following applies: equivalent concentrations of 100 nM PTX, conjugate with 5 mol % E-[c(RGDfk)2], 2.6 mol % PTX, FIG. 14. As for the experimental part: The anti-angiogenesis activity of the conjugates was evaluated by examining the effect of the conjugates on the ability of HUVEC to migrate toward the Vascular Endothelial Growth Factor (VEGF).
Cell migration assay was performed using modified 8 μm Boyden chambers Transwells® (Costar Inc., USA) coated with 10 μg/ml fibronectin HUVEC (15×10^4 cells/100 μl) were challenged with the tested compounds that were added to the upper chamber of the transwells for 2 hours. Following incubation, cells were allowed to migrate to the underside of the chamber for 4 hours in the presence or absence of VEGF (20 ng/ml) in the lower chamber. Cells were then fixed and stained (Hema 3 Stain System; Fisher Diagnostics, USA). The stained migrated cells were imaged using Nikon TE2000E inverted microscope integrated with Nikon DS5 cooled CCD camera by 10× objective, brightfield illumination. Migrated cells from the captured images per membrane were counted using NIH image software. Migration was normalized to the percent of migration toward VEGF of HUVEC which were not incubated with any compound. The extent of migration is inversely proportional to the anti-angiogenesis activity of the compounds.

Test [2] has as its system HUVEC. The test is described as follows: cells. The following applies: for IC50: HUVEC. Type of test: cell-based, human. The method, then: (§1) The anti-angiogenesis and anti-proliferative activity of the conjugates described herein was evaluated by the effect of the conjugates on the proliferation of HUVEC, U87 and PANC02 cells.
(§2) HUVEC were plated onto 24-well plate (1×10^4 cells/well) in endothelial cell basal medium 2 (EBM-2; Cambrex, USA) supplemented with 5% fetal bovine serum (FBS). Following 24 hours of incubation (37° C.; 5% CO2) medium was replaced with Endothelial cell growth medium-2 (EGM-2; Cambrex, USA). U87 and PANC02 cells were plated onto 96 well plate (2×10^3 cells/well) in DMEM supplemented with 5% FBS and incubated for 24 hours (37° C.; 5% CO2). Following 24 hours of incubation the medium was replaced with DMEM containing 10% FBS. Cells were challenged with the tested compounds at serial concentrations for 72 hours. After incubation the number of HUVEC were counted by Coulter Counter and U87, and PANC02 cells were counted by XTT respectively.

Test [3] concerns HUVEC. The test is described as follows: Endothelial cell adhesion assay on fibrinogen coated plates. Type of test: cell-based, human. The following applies: for effect of free peptides on HUVEC adhesion: free peptide at 50 μM; for inhibition of HUVEC adhesion to fibrinogen: with a similar amount of PTX. The method, then: The ability of E-[c(RGDfk)2] and E-c(RGDfk) moieties (SEQ ID NOs: 2 and 41) in the conjugates to inhibit endothelial attachment to cellular matrix after conjugation, was assessed using an adhesion assay. Flat bottom 96-well culture plates (Nunc, Denmark) were coated with 0.5 μg/well fibrinogen overnight at 4° C. After washing three times with Phosphate buffered saline (PBS), the wells were blocked with 1% bovine serum albumin (BSA) for 1 hour at 37° C. and washed three times again with PBS. HUVEC were harvested in phosphate-buffered saline (137 mM NaCl, 2.7 mM KCl, 4.3 mM Na2HPO4, 1.4 mM KH2PO4, pH 7.3) with 2.5 mM EDTA and resuspended in EBM-2 serum-free media (Clonetics). HUVEC were incubated for 30 minutes, at room temperature, with the tested compounds. The treated HUVEC were plated at 5×10^4 cells per well and were allowed to attach for 1 hour at 37° C. After incubation, the unattached cells were removed by rinsing the wells with PBS. The attached cells were fixed with 3.7% formaldehyde, stained with 0.5% crystal violet and were imaged using Nikon TE2000E inverted microscope integrated with Nikon DS5 cooled CCD camera by 4× objective, brightfield technique. The number of attached cells was quantified with NIH ImageJ processing and analysis software. Non-specific binding was determined by adhesion of HUVEC cells, which were not incubated with any of the tested compounds, to BSA-coated plates.

The test system of test [4] is U87 human glioblastoma cells. Briefly: Cell proliferation assay, U87. Type of test: cell-based. As for the experimental part:
as §1, §2

The subject of test [5] is PANC02 murine pancreatic tumor cells. Briefly: Cell proliferation assay, PANC02. It is filed as cell-based. As for the experimental part:
as §1, §2

In test [6] the test system is HUVEC. Briefly: Capillary-like tube formation assay. It is filed as cell-based, human. The following applies: equivalent concentrations of 10 nM (PTX) and 19 nM (E-[c(RGDfk)2]), conjugate with 5 mol % E-[c(RGDfk)2], 2.6 mol % PTX, FIG. 16B. The method, then: The anti-angiogenesis activity of the conjugates was evaluated by the effect of the conjugates on the ability of HUVEC cells to form capillary-like tube structures.
The surface of 24-well plates was coated with Matrigel matrix (50 μl/well) (BD Biosciences, USA) on ice and was then allowed to polymerize at 37° C. for 30 minutes. HUVEC (3×10^4 cells) were challenged with the tested compounds, and were seeded on coated plates in the presence of complete EGM-2 medium. After 8 hours of incubation (37° C.; 5% CO2), wells were imaged using Nikon TE2000E inverted microscope integrated with Nikon DS5 cooled CCD camera by 4× objective, brightfield technique. During the tube formation assay endothelial cells directionally migrate to align, branch and form polygonal networks (i.e. tube like structures). The extent of capillary-like tube structures is inversely proportional to the anti-angiogenesis activity of the compounds.

A further test addresses T1, αvβ3 integrin receptor (Homo sapiens, UniProt P05106+P06756).
T1 construct: endogenous in cells; host or cells: HUVEC
Briefly: αvβ3 interaction with fluorescently labeled conjugates in HUVEC. Type of test: cell-based. As for the experimental part:
A fluorescence probe, Oregon Green-cadaverine (OG), was conjugated to PGA conjugates through the free carboxylic groups (see Example 5 for synthesis description), in order to study the cellular uptake and trafficking.
HUVEC were plated onto 6 mm plates (5×10^5 cells/plate) in EBM-2 (Cambrex, USA) supplemented with 5% FBS. Following 24 hours of incubation (37° C.; 5% CO2), cells were challenged with either PGA-OG, PGA-c(RADfk)-OG (SEQ ID NO: 24) or PGA-E-[c(RGDfk)2]-OG (SEQ ID NO:25) diluted in EGM-2 medium for 5, 10, 15, 30 or 60 minutes. Cells were then washed in PBS (×3), harvested with PBS containing 2.5 mM EDTA and analyzed with the ImageStream 100 imaging flow cytometer (Amnis). Analysis was performed using IDEAS software.

Where two headings read alike, the source gives them in different places. Non-standard residues stand in square brackets, D forms with d.

The inhibition is the change of the read-out against control, counted positive when it falls.

T1 sequence (P06756 31-889 limits assumed): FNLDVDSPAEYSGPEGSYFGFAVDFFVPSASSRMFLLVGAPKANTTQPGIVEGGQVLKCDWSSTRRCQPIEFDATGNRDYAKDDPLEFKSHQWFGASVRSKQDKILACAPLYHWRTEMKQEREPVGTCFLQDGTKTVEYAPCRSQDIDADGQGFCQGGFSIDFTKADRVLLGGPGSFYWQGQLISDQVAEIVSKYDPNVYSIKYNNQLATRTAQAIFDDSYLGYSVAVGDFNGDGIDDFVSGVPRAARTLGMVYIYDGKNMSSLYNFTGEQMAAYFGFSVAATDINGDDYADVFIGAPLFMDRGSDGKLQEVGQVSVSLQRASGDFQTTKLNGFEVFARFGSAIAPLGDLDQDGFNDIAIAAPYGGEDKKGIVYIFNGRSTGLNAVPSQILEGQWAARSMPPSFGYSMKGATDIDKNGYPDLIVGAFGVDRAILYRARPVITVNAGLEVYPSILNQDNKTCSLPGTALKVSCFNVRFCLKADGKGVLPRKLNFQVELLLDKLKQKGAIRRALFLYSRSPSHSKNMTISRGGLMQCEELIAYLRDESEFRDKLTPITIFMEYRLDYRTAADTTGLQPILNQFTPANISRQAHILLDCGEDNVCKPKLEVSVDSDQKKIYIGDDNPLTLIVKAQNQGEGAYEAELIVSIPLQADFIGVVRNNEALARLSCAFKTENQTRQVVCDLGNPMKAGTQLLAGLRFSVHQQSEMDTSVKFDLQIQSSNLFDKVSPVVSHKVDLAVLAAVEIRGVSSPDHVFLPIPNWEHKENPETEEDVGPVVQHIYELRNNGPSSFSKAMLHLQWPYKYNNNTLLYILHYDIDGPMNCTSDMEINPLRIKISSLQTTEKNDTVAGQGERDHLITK
T1 sequence (P06756 891-1048 limits assumed): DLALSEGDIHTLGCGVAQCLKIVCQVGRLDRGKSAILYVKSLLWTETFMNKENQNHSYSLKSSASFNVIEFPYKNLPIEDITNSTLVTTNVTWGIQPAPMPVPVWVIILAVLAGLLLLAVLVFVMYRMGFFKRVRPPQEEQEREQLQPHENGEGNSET
T1 sequence (P05106 27-788): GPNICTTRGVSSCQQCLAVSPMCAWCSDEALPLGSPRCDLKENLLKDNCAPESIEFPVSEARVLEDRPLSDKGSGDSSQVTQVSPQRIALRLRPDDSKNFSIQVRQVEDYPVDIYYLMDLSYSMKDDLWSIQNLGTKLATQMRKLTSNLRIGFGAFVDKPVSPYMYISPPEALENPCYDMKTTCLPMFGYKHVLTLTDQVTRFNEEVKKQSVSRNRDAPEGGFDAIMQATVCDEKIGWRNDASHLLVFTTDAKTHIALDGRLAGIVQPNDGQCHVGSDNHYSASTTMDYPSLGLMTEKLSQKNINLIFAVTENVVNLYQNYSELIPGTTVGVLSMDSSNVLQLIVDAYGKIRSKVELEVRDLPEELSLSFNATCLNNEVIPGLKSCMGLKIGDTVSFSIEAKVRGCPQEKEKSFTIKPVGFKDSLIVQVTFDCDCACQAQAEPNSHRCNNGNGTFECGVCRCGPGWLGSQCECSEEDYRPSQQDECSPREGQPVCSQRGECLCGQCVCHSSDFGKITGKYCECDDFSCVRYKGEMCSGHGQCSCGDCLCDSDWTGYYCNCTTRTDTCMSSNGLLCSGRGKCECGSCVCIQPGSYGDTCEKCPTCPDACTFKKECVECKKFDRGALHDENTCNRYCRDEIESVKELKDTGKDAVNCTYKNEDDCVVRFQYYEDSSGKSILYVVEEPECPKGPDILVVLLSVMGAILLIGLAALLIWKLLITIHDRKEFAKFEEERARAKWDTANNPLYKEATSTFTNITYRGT

Take `N=C(N)NCCC[C@@H]1NC(=O)[C@H](CCCCNC(=O)CC[C@H](N)C(=O)NCCCC[C@@H]2NC(=O)[C@@H](Cc3ccccc3)NC(=O)[C@H](CC(=O)O)NC(=O)CNC(=O)[C@H](CCCNC(=N)N)NC2=O)NC(=O)[C@@H](Cc2ccccc2)NC(=O)[C@H](CC(=O)O)NC(=O)CNC1=O` [E-[c(RGDfk)2]]: the “inhibition of the migration of HUVEC towards VEGF” value in the test on HUVEC [1] is “about 30%”. Besides, the “effect on HUVEC proliferation” value in the test with HUVEC [2] (FIG. 12A) is on record as “only at high concentrations”. Besides, the “effect of free peptides on HUVEC adhesion” value (“effect of free peptides” below) in the test with HUVEC [3] is “completely abrogated HUVEC adhesion”.
For `CC(=O)O[C@H]1C(=O)[C@@]2(C)[C@H]([C@H](OC(=O)c3ccccc3)[C@]3(O)C[C@H](OC(=O)[C@H](O)[C@@H](NC(=O)c4ccccc4)c4ccccc4)C(C)=C1C3(C)C)[C@]1(OC(C)=O)CO[C@@H]1C[C@@H]2O` [PTX, Paclitaxel], the IC50 in test [4] (Homo sapiens, U87, 72 hours, bis-cyclic RGD compounds (X = 2), NA = did not reach IC50 in the concentrations used, 'a -- b' = bell-shaped curve, read-out: IC50 (nM) of PGA- PTX-E-[c(RGDfk)2] (SEQ ID NO: 18) 5 mol % PTX, 3.9 mol % RGD) was 0.045 nM; in test [4] (Homo sapiens, nM PTX, equivalent doses, FIG. 12B, read-out: IC50 of U87 proliferation) it was roughly 0.01 nM; in test [5] (Mus musculus, Panc02, nM PTX, equivalent doses, FIG. 12C, read-out: IC50 of PANC02 proliferation) it was roughly 200 nM; in test [5] (Mus musculus, PANC02, 72 hours, bis-cyclic RGD compounds (X = 2), NA = did not reach IC50 in the concentrations used, read-out: IC50 (nM) of PGA- PTX-E-[c(RGDfk)2] (SEQ ID NO: 18) 5 mol % PTX, 3.9 mol % RGD) it was 200 nM; in the test on HUVEC [2] (Homo sapiens, nM PTX, FIG. 12A, read-out: IC50 of HUVEC proliferation) it was roughly 0.01 nM; with HUVEC [2] (Homo sapiens, 72 hours, bis-cyclic RGD compounds (X = 2), NA = did not reach IC50 in the concentrations used, 'a -- b' = bell-shaped curve, read-out: IC50 (nM) of PGA- PTX-E-[c(RGDfk)2] (SEQ ID NO: 18) 2.6 mol % PTX, 5 mol % RGD), 0.01 nM. Further, the IC50 with HUVEC [2] (Homo sapiens, 72 hours, bis-cyclic RGD compounds (X = 2), NA = did not reach IC50 in the concentrations used, 'a -- b' = bell-shaped curve, read-out: IC50 (nM) of PGA- PTX-E-[c(RGDfk)2] (SEQ ID NO: 18) 5 mol % PTX, 3.9 mol % RGD) was 0.009 nM; in the test with HUVEC [2] (Homo sapiens, 72 hours, experiment with monocyclic RGD compounds (X = 1), NA = did not reach IC50 in the concentrations used, 'a -- b' = bell-shaped curve, read-out: IC50 (nM) of PGA- PTX-E-c(RGDfk) (SEQ ID NO: 16) 2.1 mol % PTX, 5 mol % RGD), 0.0085 nM. For the same molecule, the inhibition at 0.1 µM with HUVEC [1] (Homo sapiens, HUVEC) was roughly 55%. Also, in the test with HUVEC [6] (Homo sapiens, HUVEC, read-out: inhibition of the formation of tubular structures of HUVEC), the inhibition at 0.01 µM is roughly 50%. For the same molecule, in the test with HUVEC [3] (free PTX, PGA and combinations, FIG. 15), the “effect on endothelial cell adhesion” value was “negligent effect”.
Turning to “PGA-PTX-c(RADfk) (cyclo(RAD[dF]K); not fully specified (residue 5); also: polyglutamic acid polymer conjugate, paclitaxel conjugate)”, the IC50 in test [4] (U87, 72 hours, bis-cyclic RGD compounds (X = 2), NA = did not reach IC50 in the concentrations used, 'a -- b' = bell-shaped curve, read-out: IC50 (nM) of PGA- PTX-E-[c(RGDfk)2] (SEQ ID NO: 18) 5 mol % PTX, 3.9 mol % RGD) is 65 nM; in test [5] (PANC02, 72 hours, bis-cyclic RGD compounds (X = 2), NA = did not reach IC50 in the concentrations used, read-out: IC50 (nM) of PGA- PTX-E-[c(RGDfk)2] (SEQ ID NO: 18) 5 mol % PTX, 3.9 mol % RGD), 2600 nM; in test [5] (nM PTX, equivalent doses, FIG. 12C, read-out: IC50 of PANC02 proliferation), roughly 2000 nM. Further, the “inhibition of the formation of tubular structures of HUVEC” value with HUVEC [6] is on record as “about 40%”. The “inhibition of HUVEC adhesion to fibrinogen” value was roughly 20% in the test with HUVEC [3] (control compared to bis-cyclic RGD-bearing conjugates) and roughly 50% in the test on HUVEC [3] (control compared to monocyclic RGD-bearing conjugate).
Consider “PGA-c(RADfk) (cyclo(RAD[dF]K); not fully specified (residue 5); also: polyglutamic acid polymer conjugate)”, for which the IC50 in the test on HUVEC [2] (72 hours, bis-cyclic RGD compounds (X = 2), NA = did not reach IC50 in the concentrations used, 'a -- b' = bell-shaped curve, read-out: IC50 (nM) of PGA- PTX-E-[c(RGDfk)2] (SEQ ID NO: 18) 2.6 mol % PTX, 5 mol % RGD) worked out at 5000 nM; in the test with HUVEC [2] (72 hours, experiment with monocyclic RGD compounds (X = 1), NA = did not reach IC50 in the concentrations used, 'a -- b' = bell-shaped curve, read-out: IC50 (nM) of PGA- PTX-E-c(RGDfk) (SEQ ID NO: 16) 2.1 mol % PTX, 5 mol % RGD), 1000 nM.
“PGA-c(RADfk)-OG (cyclo(RAD[dF]K); not fully specified (residue 5); also: polyglutamic acid polymer conjugate, Oregon Green label)”: the “time at which conjugate-cell adherence was first observed” value with αvβ3 integrin receptor (ImageStream 100 imaging flow cytometer) is 15 min. Further, the “extent of binding / uptake by HUVEC” value in the test with αvβ3 integrin receptor (OG fluorescence, FIGS. 11B, 11C) is reported as “bound to a much lesser extent”.
For the molecule “c(RADfk): inactive cyclic peptide RAD, negative control (SEQ ID NO:40) (cyclo(RAD[dF]K); not fully specified (residue 5))”, the “inhibition of the migration of HUVEC towards VEGF” value in the test on HUVEC [1] is “about 30%”. The “effect on HUVEC proliferation” value in the test on HUVEC [2] (FIG. 12A) is “no effect even at those high concentrations”. In addition, the “effect of free peptides” value in the test on HUVEC [3] was “no effect”.
With c[Arg-Gly-Asp-Phe-Lys] [E-c(RGDfk)], the “effect of free peptides” value in the test with HUVEC [3] was “completely abrogated HUVEC adhesion”.
